According to US20150148393A1, “COSMETIC AND/OR PHARMACEUTICAL COMPOSITION FOR THE TREATMENT OF SKIN INFLAMMATION AND RELATED SYNDROMES” (GENERAL TOPICS S.R.L., priority 2012, published 2015):

Test system: TNF alpha release from human keratinocytes
Assay: Inhibition of SLS-induced TNF alpha release from human keratinocytes
Format: cell-based
Settings: release induced by sodium lauryl sulphate (SLS), after a 24 hour-period
Source text: A comparison was made between the inhibition of TNF alpha release from human keratinocytes as induced by contact with sodium lauryl sulphate (SLS) and obtained with the use of methyl sulfonyl methane (MSM), and that obtained with the use of hydrocortisone, a compound known to be active in inhibiting the release of TNF alpha. […] Therefore, the studies performed pointed out that MSM can decrease both the release of TNF alpha (this cytokine is expressed by keratinocytes in an inflammatory process of the skin) and the overall intensity of erythema even when TNF alpha is over-expressed by ultraviolet radiations. […] Moreover, it should be noted that TNF alpha can activate TRPV receptors and, therefore, a decrease in the production thereof can prevent it from exerting an agonist effect on the receptors themselves.

SMILES | percentage decrease of TNF alpha release [%]
CS(C)(=O)=O [MSM, methyl sulfonyl methane] | 12.33
C[C@]12CCC(=O)C=C1CC[C@@H]1[C@@H]2[C@@H](O)C[C@@]2(C)[C@H]1CC[C@]2(O)C(=O)CO [hydrocortisone] | 5.25
